We go through one molecule from patent US20230150951A1, “2,5- OR 2,6-DISUBSTITUTED HYDROQUINONE DERIVATIVES WITH AT LEAST ONE CARBOXY, SULFO OR AMIDO GROUP USEFUL AS MEDICAMENTS” (OM PHARMA SA, priority 2020, published 2023).

Where two headings read alike, the source gives them in different places.

Common to all, as to type: cell-based
One assay deals with T1, FGF-1 (Homo sapiens, UniProt P05230).
T1 construct: purchased Peprotech 100-17A
Description: FGF-1 induced sprouting of HUVEC, spheroid-based cellular angiogenesis assay. The note with it: FGF-1 25 ng/mL preincubated with compound, 24 h. The method in brief: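 Spheroids of 400 HUVEC (passage 3–4), embedded in collagen gel, were stimulated with FGF-1, FGF-2 or VEGF-A (final 25 ng/mL) preincubated 30 min at 37°C with compound (final 1.56–100 μM).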

The next assay concerns IL-4. Description: Cytokine release after LPS induction on human whole blood: IL-4. As for the experimental part:
(§1) Aim of this in vitro method is to assess compounds effects on release of a panel of cytokines from whole blood following lipopolysaccharide (LPS) induced inflammatory reaction. Whole blood was incubated with compounds for 1 h prior to LPS induction. Cytokine levels in blood were measured using a multiplex FACS-based panel.
(§2) IC50 values determined for the tested compounds expressed in microM [μM] and the values for the inhibition of cytokines were listed for each compound.
(§3) Effect on cytokines release after LPS induction was performed on the compounds dissolved in DMSO or H2O to reach 10-fold concentrated stock solutions and dissolved in culture media.
(§4) Test system: Whole blood was removed from a single donor (into lithium heparin coated tubes; BD Vacutainer; 367886) and diluted 1:5 with RPMI 1640 (Thermo Fisher, 61870036). Within 30 minutes of sampling, blood was incubated with compounds for 1 h prior to LPS stimulation (O111:B4—Sigma L4391; 10 ng/ml final concentration). Stimulation continued under standard cell culture conditions (37° C. with 5% CO2) overnight (18 h), after which plates were centrifuged and supernatant removed and frozen at −80° C. until used for analyses.
(§5) Dilution of test compounds: 10×concentrated solutions (concerning to the final assay concentrations) of each test compound were prepared with the appropriate solvent (in DMSO or in water). These 10× compound solutions (10 μl) were then added to 90 μl pre-diluted whole blood (whole blood: RPMI1640, 1:5) resulting in the final assay concentration.
(§6) Test method: Diluted whole blood (80 μl) was pre-incubated with compounds (10 μl) to give final assay concentrations of 100, 30, 10, 3, 1, 0.3 and 0.1×10^−6M. Blood was incubated at 37° C. with 5% CO2 for 1 h. LPS was diluted in cell culture media to a concentration of […]; 10 μl was added to the whole blood to give a final concentration of 10 ng/ml. Plates were incubated at 37° C. for 18 h. Plates were centrifuged at 3,000 RPM for 5 minutes at 4° C. and supernatant removed and frozen at −80° C. until FACS analysis was carried out.
(§7) Cytokine release was measured using a custom multiplex system (ELISA Genie) according to manufacturers instructions. Prepared samples were run on an Attune NxT flow cytometer (Thermo Fisher).
(§8) Quantification of cytokine release inhibition: known concentration standards were run as part of the cytokine panel to allow quantification of each cytokine concentration in each sample. This was carried out using FCAP Array v3.0 software.
(§9) Results: The dose response relationship on cytokine release following LPS induction of inflammatory response in whole blood was assessed for all compounds. IC50 values were determined for each compound for a panel of cytokines (GM-CSF, IFN-gamma, IL-1beta, IL-2, IL-4, IL-5, IL-6, IL-8, IL-9, IL-10, IL-12p40, IL-13, IL-17A, IL-17F, IL-18, IL-21, IL-22, IL-33, TGF-beta, TNF-alpha, TNF-beta).

The test system of the next assay is IL-10. The assay is described as follows: Cytokine release after LPS induction on human whole blood: IL-10. As for the experimental part:
as §1, §2, §3, §4, §5, §6, §7, §8, §9

T1 sequence (P05230 whole entry): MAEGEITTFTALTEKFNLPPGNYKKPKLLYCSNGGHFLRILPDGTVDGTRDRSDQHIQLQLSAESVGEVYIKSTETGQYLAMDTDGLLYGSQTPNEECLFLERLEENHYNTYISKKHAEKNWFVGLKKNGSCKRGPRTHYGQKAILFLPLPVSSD

For `O=C(O)c1cc(NC(=O)c2cc(O)c(C(=O)O)cc2O)cc(C(=O)O)c1` [Ia-015a, 5-(4-carboxy-2,5-dihydroxybenzamido)isophthalic acid], the IC50 (as a rule, the midpoint of a concentration-inhibition curve) on FGF-1 was 20 µM; in the assay with IL-4 (Homo sapiens, LPS 10 ng/ml, 18 h, read-out: Whole Blood: IL-4 IC50) it was over 100 µM; with IL-4 (human whole blood, inhibition of LPS induced inflammation, read-out: IC50 IL-4) it was 100 µM; in the assay with IL-10 (Homo sapiens, LPS 10 ng/ml, 18 h, read-out: Whole Blood: IL-10 IC50) it was 5.27 µM; in the assay on IL-10 (human whole blood, inhibition of LPS induced inflammation, read-out: IC50 IL-10), 5.27 µM.
